In ChEMBL document CHEMBL3638939, “Tetrahydroisoquinolines, pharmaceutical compositions containing them, and their use in therapy” (2014) one finds IC50 and Ki data, which are given here for 3 compounds.

Assay [1] deals with T1, Sodium- and chloride-dependent glycine transporter 1 (Homo sapiens, UniProt P48067).
T1 sequence (P48067 whole entry): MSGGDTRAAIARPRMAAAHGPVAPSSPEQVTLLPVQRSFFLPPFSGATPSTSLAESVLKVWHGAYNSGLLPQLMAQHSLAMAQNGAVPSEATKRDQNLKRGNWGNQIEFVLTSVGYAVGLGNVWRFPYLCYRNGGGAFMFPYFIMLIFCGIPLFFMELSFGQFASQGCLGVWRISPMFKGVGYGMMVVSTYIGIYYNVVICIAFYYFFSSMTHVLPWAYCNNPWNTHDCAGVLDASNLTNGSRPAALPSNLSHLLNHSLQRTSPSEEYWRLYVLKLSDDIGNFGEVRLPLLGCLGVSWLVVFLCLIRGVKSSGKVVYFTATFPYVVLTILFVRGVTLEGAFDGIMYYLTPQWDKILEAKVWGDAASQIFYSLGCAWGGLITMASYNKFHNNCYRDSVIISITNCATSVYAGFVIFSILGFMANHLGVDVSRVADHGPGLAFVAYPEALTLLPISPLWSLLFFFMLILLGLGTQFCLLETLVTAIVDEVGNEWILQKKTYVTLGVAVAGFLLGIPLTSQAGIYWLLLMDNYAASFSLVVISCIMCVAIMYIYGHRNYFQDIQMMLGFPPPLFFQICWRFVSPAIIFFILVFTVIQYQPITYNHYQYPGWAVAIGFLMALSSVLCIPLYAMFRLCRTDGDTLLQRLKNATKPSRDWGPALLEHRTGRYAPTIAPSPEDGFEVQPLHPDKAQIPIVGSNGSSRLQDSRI
Put plainly: Glycine Uptake Assay: [3H]-Glycine uptake into recombinant CHO cells expressing human GlyT1: Human GlyT1c expressing recombinant hGlyT1c_5_CHO cells were plated at 20,000 cells per well in 96 well Cytostar-T scintillation microplates (Amersham Biosciences) and cultured to sub-confluency for 24 h. For glycine uptake assays the culture medium was aspirated and the cells were washed once with 100 ul HBSS (Gibco BRL, #14025-050) with 5 mM L-Alanine (Merck #1007). 80 ul HBSS buffer were added, followed by 10 ul inhibitor or vehicle (10% DMSO) and 10 ul [3H]-glycine (TRK71, Amersham Biosciences) to a final concentration of 200 nM for initiation of glycine uptake. The plates were placed in a Wallac Microbeta (PerkinElmer) and continuously counted by solid phase scintillation spectrometry during up to 3 hours. Nonspecific uptake was determined in the presence of 10 uM Org2 4598. IC50 calculations were made by four-parametric logistic nonlinear regressi on analysis (GraphPad Prism). The assay is classed as cell-based.

For assay [2], the target named is T1, Sodium- and chloride-dependent glycine transporter 1. Put plainly: Radioligand Binding Assay: Radioligand binding to human GlyT1c transporter-expressing membranes was carried out as described in Mezler et al., Molecular Pharmacology 74:1705-1715, 2008.More specifically, [3H]-(R)-NPTS radioligand binding to human GlyT1c transporter-expressing membranes was measured in duplicate in a total volume of 200 ul in 96-well plates. To 100 ul of membrane suspension (yielding a final membrane protein concentration of 50 ug/ml) in assay buffer (120 mM NaCl, 2 mM KCl, 10 mM Hepes, 1 mM MgCl2, 1 mM CaCl2, pH 7.5) 80 ul of [3H]-(R)-NPTS (0.5 nM final) were added in assay buffer. For competition experiments 10 ul of buffer or unlabeled compound solution obtained from dilution series of test compounds in DMSO followed. An intermediate 1:10 dilution in assay buffer yielded a final DMSO concentration of 1%. Non-specific binding was determined in the presence of 10 uM Org24598 (or its racemate Org24461) for [3H]-(R)-NPTS.

Consider `CCCS(=O)(=O)NCCOc1ccc2c(c1)C(C1(c3cccc(F)c3)CCC1)NCC2` (stereo not given), for which, in assay [1], the IC50 was below 0.1 µM. Besides, the inhibition constant Ki in assay [2] was below 0.1 µM. Regarding `O=C1c2ccccc2C(=O)N1CCS(=O)(=O)NCCOc1ccc2c(c1)C(C1(c3ccc(Cl)cc3)CCC1)NCC2` (stereo not given), in assay [1], the IC50 was below 100 µM. In addition, the Ki in assay [2] is below 10 µM. In the case of `Cc1oncc1S(=O)(=O)NCCOc1ccc2c(c1)C(C1(c3ccc(Cl)cc3)CCC1)NCC2` (stereo not given), the inhibitory constant (Ki) in assay [2] is below 10 µM.
